Columns and labels:
[1] = tested on: KB cell culture; conditions: abstract, Gatlinburg 1976; cited from earlier work
[2] = tested on: leukemia L1210; conditions: mouse, in vivo; cited from earlier work
[3] = tested on: Lymphocytic leukemia P388; experiment: P388 lymphocytic leukemia, 10^6 tumor cell implant, i.p., % ILS; format: in vivo, mice
Source text: (d) Lymphocytic leukemia p388. Geran, R. I., Greenberg, N. H., MacDonald,
M. M., Schulacker, A. M., Abott, B. J., Cancer Chemother. Rep., 1972, Par

[4] = tested on: cultured lymphoid leukemia L1210 cells; experiment: Mitotic Index, fraction of cultured L1210 cells in mitoses (metaphase); format: cell-based
[5] = tested on: lymphoid leukemia L1210 cells; experiment: inhibition of proliferation of cultured lymphoid leukemia L1210 cells; format: cell-based; conditions: Mus musculus, concentration that inhibits proliferation to 50% of control growth, 24 hours, (g) = average of 2 determinations, read-out: L1210 ID50
Source text: (b) Concentration of agent that inhibits proliferation of cultured lymphoi
leukemia L1210 cells to 50% control growth.

[6] = tested on: Botrytis cinereae; experiment: antifungal activity; format: cell-based
Method: (§1) The 1,2-dihydropyrido[3,4-b]pyrazines at concentrations that prevented any increase in the cell number during a 24 hour period had little effect upon the synthesis of DNA, RNA, and protein by cultured L1210 cells during exposure for four hours. […] Exposure of cultured L1210 cells to the 1,2-dihydropyrido[3,4-b]pyrazines inhibited cell division as measured by the mitotic index (MI) (Table V), which is the fraction of the cell population that is made up of metaphase cells. […] For example, 5-amino-1,2-dihydro-3-phenylpyrido[3,4-b]pyrazin-7-ylcarbamate was active against Saccharomyces cerevisiae, Asperigillus niger, Penicillium italicum and Botrytis cinereae.

[7] = tested on: Saccharomyces cerevisiae; experiment: antifungal activity; format: cell-based
Method: as §1

[8] = tested on: Asperigillus niger; experiment: antifungal activity; format: cell-based
Method: as §1

[9] = tested on: Penicillium italicum; experiment: antifungal activity; format: cell-based
Method: as §1

[10] = tested on: P388 cells that were resistant to vincristine; experiment: vincristine-resistant line of P388 in mice; format: in vivo
Source text: (h) Vincristineresistant line of P388. Wilkoff, L. J. and Dulmadge, E. A.,

[11] = Mus musculus, P388, ip, i.p. implant, days 1-5
[12] = Mus musculus, P388, ip, i.p. implant, days 1-5, 10 mg/kg
[13] = Mus musculus, P388, ip, i.p. implant, days 1-9
[14] = Mus musculus, P388, ip, 24 h, i.p. implant, day 1

**Q.** Which “cytotoxicity in the KB cell culture screen” value [1] does the source give for `CCOC(=O)Nc1cc2c(c(N)n1)N=C(CN(C)c1ccc(C(=O)OC)cc1)CN2` here?
**A.** showed cytotoxicity

**Q.** And the “activity against leukemia L1210 in mice” value [2]?
**A.** activity against leukemia L1210 in mice

**Q.** With `CCOC(=O)Nc1cc2c(c(N)n1)N=C(c1ccc(C)cc1C)CN2` [2,4-(CH3)2 C6 H3] as the molecule, how does the ILS at 20 mg/kg ([3]; Mus musculus, P388, ip, i.p. implant, days 1-5, 20 mg/kg (highest dose tested)) read?
**A.** 23%

**Q.** What about the “Mitotic Index 12h” value ([4]; 0.1 μM) of the same molecule?
**A.** 0.66

**Q.** What about the IC50 [5] of the same molecule?
**A.** 42 nM

**Q.** Which results are given for `CCOC(=O)Nc1cc2c(c(N)n1)N=C(c1ccc(Cl)cc1Cl)CN2` [2,4-Cl2 C6 H3]?
**A.** ILS at 12.5 mg/kg [3, 11]: 49%; Mitotic Index 24h ([4]; 0.3 μM): 0.20; IC50 [5]: 44 nM

**Q.** Which ILS at 5 mg/kg ([3]; Mus musculus, P388, ip, i.p. implant, days 1-5, 5 mg/kg) does the source give for `CCOC(=O)Nc1cc2c(c(N)n1)N=C(c1ccc3ccccc3c1)CN2` [2-C10 H7] here?
**A.** 53%

**Q.** What about the ILS at 10 mg/kg [3, 12] of the same molecule?
**A.** 66%

**Q.** What about the 30th-day survivor ([3]; days 1-5, 10 mg/kg) of the same molecule?
**A.** One

**Q.** What about the “Mitotic Index 12h” value ([4]; 0.03 μM) of the same molecule?
**A.** 0.60

**Q.** And the IC50 [5]?
**A.** 6 nM

**Q.** With `CCOC(=O)Nc1cc2c(c(N)n1)N=C(c1cc(OC)c(OC)c(OC)c1)CN2` [3,4,5-(CH3 O)3 C6 H2] as the molecule, how does the “Mitotic Index 12h” value ([4]; 0.3 μM) read?
**A.** 0.41

**Q.** What does the source list for `CCOC(=O)Nc1cc2c(c(N)n1)N=C(c1ccc(C)c(C)c1)CN2` [3,4-(CH3)2 C 6 H3]?
**A.** ILS at 12.5 mg/kg [3, 11]: 44%; Mitotic Index 24h ([4]; 0.3 μM): 0.16; IC50 [5]: 138 nM

**Q.** With `CCOC(=O)Nc1cc2c(c(N)n1)N=C(c1ccc(Cl)c(Cl)c1)CN2` [3,4-Cl2 C6 H3] as the molecule, how does the ILS at 10 mg/kg [3, 12] read?
**A.** 58%

**Q.** What about the “Mitotic Index 12h” value ([4]; 0.01 μM) of the same molecule?
**A.** 0.69

**Q.** And the “Mitotic Index 12h” value ([4]; 0.03 μM)?
**A.** 0.53

**Q.** What about the IC50 [5] of the same molecule?
**A.** 18 nM

**Q.** What does the source list for `CCOC(=O)Nc1cc2c(c(N)n1)N=C(c1cccc(OC)c1)CN2` [3-CH3 OC6 H4]?
**A.** Mitotic Index 12h ([4]; 0.003 μM): 0.56; IC50 [5]: 1.22 nM

**Q.** What does the source list for `CCOC(=O)Nc1cc2c(c(N)n1)N=C(c1ccc(C(F)(F)F)cc1)CN2` [4-CF3 C6 H4, ethyl 5-amino-1,2-dihydro-3-[4'-(trifluoromethyl)phenyl]pyrido[3,4-b]pyrazin-7-ylcarbamate]?
**A.** ILS at 90 mg/kg ([3]; Mus musculus, P388, ip, 24 h, i.p. implant, day 1, 90 mg/kg (highest dose tested)): 0%; ILS at 30 mg/kg ([3]; Mus musculus, P388, ip, i.p. implant, days 1,5,9, 30 mg/kg (highest dose tested)): 0%; ILS at 50 mg/kg [3, 13]: 17%; Mitotic Index 24h ([4]; 0.3 μM): 0.01; IC50 [5]: 150 nM

**Q.** Which ILS at 12 mg/kg ([3]; Mus musculus, P388, ip, i.p. implant, days 1-5, 12 mg/kg) does the source give for `CCOC(=O)Nc1cc2c(c(N)n1)N=C(c1ccc(C)cc1)CN2` [4-CH3 C6 H4] here?
**A.** 30%

**Q.** What about the “Mitotic Index 24h” value ([4]; 0.3 μM) of the same molecule?
**A.** 0.22

**Q.** And the IC50 [5]?
**A.** 24 nM

**Q.** Which ILS at 25 mg/kg [3, 14] does the source give for `CCOC(=O)Nc1cc2c(c(N)n1)N=C(c1ccc(OC)cc1)CN2` [4-CH3 OC6 H4] here?
**A.** 50%

**Q.** And the ILS at 25 mg/kg ([3]; Mus musculus, P388, ip, i.p. implant, days 1,5,9)?
**A.** 63%

**Q.** And the ILS at 3 mg/kg [3, 13]?
**A.** 35%

**Q.** And the “Mitotic Index 24h” value ([4]; 0.3 μM)?
**A.** 0.27

**Q.** And the IC50 [5]?
**A.** 4.1 nM

**Q.** Which ILS at 3 mg/kg [3, 11] does the source give for `CCOC(=O)Nc1cc2c(c(N)n1)N=C(c1ccc(F)cc1)CN2` [4-FC6 H4] here?
**A.** 49%

**Q.** And the “Mitotic Index 12h” value ([4]; 0.01 μM)?
**A.** 0.47

**Q.** And the IC50 [5]?
**A.** 6.8 nM

**Q.** With `CCOC(=O)Nc1cc2c(c(N)n1)N=C(c1ccc(N)cc1)CN2` [4-H2 NC6 H4] as the molecule, how does the ILS at 50 mg/kg [3, 14] read?
**A.** 35%

**Q.** What about the “Mitotic Index 24h” value ([4]; 0.3 μM) of the same molecule?
**A.** 0.19

**Q.** And the IC50 [5]?
**A.** 23 nM

**Q.** Which antifungal activity [6] does the source give for `CCOC(=O)Nc1cc2c(c(N)n1)N=C(c1ccccc1)CN2` [C6 H5, Ethyl 5-Amino-1,2-dihydro-3-phenylpyrido(3,4-b)pyrazin-7-ylcarbamate] here?
**A.** active

**Q.** What about the antifungal activity [7] of the same molecule?
**A.** active

**Q.** What about the antifungal activity [8] of the same molecule?
**A.** active

**Q.** And the antifungal activity [9]?
**A.** active

**Q.** And the ILS at 12.5 mg/kg ([3]; Mus musculus, P388, ip, 24 h, i.p. implant, day 1, average of 2 determinations)?
**A.** 55%

**Q.** What about the ILS at 4.5 mg/kg ([3]; Mus musculus, P388, ip, i.p. implant, days 1,5,9, 4.5 mg/kg) of the same molecule?
**A.** 42%

**Q.** And the ILS at 2 mg/kg ([3]; Mus musculus, P388, ip, i.p. implant, days 1-9, 2 mg/kg)?
**A.** 51%

**Q.** And the “Mitotic Index 12h” value ([4]; 0.03 μM)?
**A.** 0.65

**Q.** And the “Mitotic Index 24h” value ([4]; 0.3 μM)?
**A.** 0.54

**Q.** And the “activity against P388 cells resistant to vincristine (in words)” value ([10]; in mice)?
**A.** active in mice against P388 cells that were resistant to vincristine

**Q.** What about the “P388 % ILS” value ([10]; vincristine-resistant line of P388, day 1, 12 mg/kg) of the same molecule?
**A.** 50%

**Q.** What about the IC50 [5] of the same molecule?
**A.** 4.7 nM

**Q.** For `CCOC(=O)Nc1cc2c(c(N)n1)N=C(c1ccccc1)CN2C` [C6 H5, R3 = CH3], which ILS at 100 mg/kg ([3]; Mus musculus, P388, ip, 24 h, i.p. implant, day 1, 100 mg/kg) is on record?
**A.** 12%

**Q.** And the “Mitotic Index 12h” value ([4]; 0.3 μM)?
**A.** 0.68

**Q.** And the IC50 [5]?
**A.** 160 nM

**Q.** With `CCOC(=O)Nc1cc2c(c(N)n1)N=C(c1ccccc1)C(C)N2` (centres unmarked) [C6 H5, R4 = CH3] as the molecule, how does the “Mitotic Index 12h” value ([4]; 0.003 μM) read?
**A.** 0.69

**Q.** What about the IC50 [5] of the same molecule?
**A.** 0.51 nM

**Q.** What does the source list for `COC(=O)Nc1nc2ccc(C(=O)c3cccs3)cc2[nH]1` [Nocodazole, reference compound]?
**A.** Mitotic Index 24h ([4]; 0.3 μM): 0.19; IC50 [5]: 27 nM

**Q.** For `CC[C@]1(O)C[C@H]2CN(CCc3c([nH]c4ccccc34)[C@@](C(=O)OC)(c3cc4c(cc3OC)N(C=O)[C@H]3[C@@](O)(C(=O)OC)[C@H](OC(C)=O)[C@]5(CC)C=CCN6CC[C@]43[C@@H]65)C2)C1` [Vincristine, reference compound], which ILS at 2.7 mg/kg ([3]; Mus musculus, P388, ip, 24 h, i.p. implant, day 1, 2.7 mg/kg) is on record?
**A.** 100%

**Q.** And the ILS at 1.3 mg/kg ([3]; Mus musculus, P388, ip, i.p. implant, days 1,5,9, 1.3 mg/kg)?
**A.** 181%

**Q.** And the ILS at 0.33 mg/kg ([3]; Mus musculus, P388, ip, i.p. implant, days 1-9, 0.33 mg/kg)?
**A.** 145%

**Q.** And the 40th-day survivors ([3]; day 1, 2.7 mg/kg)?
**A.** Two

**Q.** And the 40th-day survivors ([3]; days 1,5,9, 1.3 mg/kg)?
**A.** Three

**Q.** What about the 40th-day survivors ([3]; days 1-9, 0.33 mg/kg) of the same molecule?
**A.** Three

**Q.** And the IC50 [5]?
**A.** < 1 nM

Reference: US4450160A, “1,2-Dihydropyrido[3,4-b]-pyrazines and method and intermediates for preparing same” (Southern Research Institute, priority 1982, dated 1984)
